Several values for one entry are separate records, joined by “and”; a condition that tells them apart may be missing. Equal entries are not always repeated. Where two headings read alike, the source gives them in different places.
Experiments:
[1] = target: human DNA polymerases α and β and human mitochondrial DNA polymerase γ; experiment: Human DNA polymerase inhibition assays (summary for α, β, γ); type: biochemical; conditions: read-out: IC50 values against human DNA polymerases tested
Method: (§1) The activities of human DNA polymerases α, β, and γ were measured in radiolabeled nucleotide incorporation assays. TP was prepared as a 10-point titration with 3-fold serial dilution in water. Reaction buffers for the DNA polymerase α and β assays both contained 20 mM Tris pH 7.5, 10 mM MgCl2, 50 μM EDTA, 200 μg/mL bovine serum albumin (BSA), 2 mM dithiothreitol (DTT), 1.6 μM each of dNTP (dATP, dCTP, dGTP, and dTTP), 20 μCi/mL [α33P]dATP, 0.1 mg/mL gapped activated fish sperm DNA template, test compound, and 0.005 U/μL DNA polymerase α or 0.0025 U/μL DNA polymerase β. The reaction buffer for DNA polymerase γ contained 20 mM Tris pH 8, 10 mM MgCl2, 50 mM KCl, 100 μg/mL BSA, 2 mM β-mercaptoethanol, 10 μM of each dNTP (dATP, dCTP, dGTP, and dTTP), 20 μCi/mL [α33P]dATP, 0.04 mg/mL gapped activated fish sperm DNA template, test compound, and 0.0003 μg/μL DNA polymerase γ. The 50-μL reactions were incubated at room temperature for 30 min (for β and γ) or 90 min (for α) before terminating with the addition of 50 μL 500 mM EDTA. The reaction mixtures were transferred to a Millipore DE81 filter plate (EMD Millipore; Hayward, CA), washed with 0.5 M sodium phosphate pH 7.0, and dried. After addition of 40 μL scintillant to each well, the incorporation of labeled dATP was determined with a microplate counter (TopCount NXT HTS; PerkinElmer, Shelton, CA, USA).

[2] = MK-8527-TP in PBMCs of rhesus monkeys after oral dosing; type: in vivo; conditions: oral MK-8527 50 mg/kg
Method: The intracellular concentration of MK-8527-TP was determined by an LC–MS/MS assay. LC–MS/MS analysis was performed on a Acquity UPLC system (Waters Corporation; Milford, MA, USA) interfaced to an API-5500 mass spectrometer using a TurboIonSpray source (Sciex, Framingham, MA, USA) in positive ionization mode. Separation of MK-8527-TP was achieved on a BioBasic AX column (2.1 × 100 mm, 5 µm; Thermo Fisher Scientific) at 45 °C using gradient elution with mobile phases consisting of 70% water to 30% acetonitrile containing 10 mM ammonium acetate (solvent A) and 70% water to 30% acetonitrile containing 20 mM ammonium acetate, 1.5% ammonium hydroxide (NH4OH) (v/v), and 10% isopropyl alcohol (IPA) (v/v) (solvent B) at a flow rate of 0.75 mL/min. The chromatography was run as follows: The column was equilibrated with 97% A, and after sample injection 97% A was maintained for 0.10 min before concentration was increased linearly to 100% B until 3.00 min, followed by a hold at 100% B until 3.50 min. The column was then washed by alternating linear ramps from 97% A to 100% B up to 4.10 min, then returned to the initial conditions at 4.30 min and kept for an additional 1.20 min. The total run time was 5.50 min. Quantification was performed by monitoring the transitions of m/z 548.9 to 169.1 for MK-8527-TP. The method was linear across a concentration range of 1–5,000 nM in cell samples across species. The method’s lower limit of quantification was between 1 and 5 nM depending on the assay volumes of cell suspension. Analyte concentrations in cell samples across species were determined from the standard curves using linear regression with 1/×2 weighting.
PBMCs were isolated from heparinized monkey blood using the following protocol. To begin, blood samples (approximately 12–18 mL) were diluted with an equal volume of calcium- and magnesium-free PBS at pH 7.4 and gently mixed. Separation of PBMCs from the diluted blood was achieved using 50 mL AccuSpin tubes loaded with Histopaque-1077 lymphocyte separation medium (both: Thermo Fisher Scientific). Samples were centrifuged at 800g for 15 min at room temperature. The resulting plasma/buffer supernatant was removed without disturbing the PBMC interface. Next, the PBMC interface was removed with a pipette, and the cells were washed by the addition of calcium- and magnesium-free PBS (pH 7.4) to a final volume of 15 mL. PBMCs were harvested by centrifugation at 250g for 20 min at room temperature. The supernatant was decanted with care taken not to disturb the PBMC pellet, and the wash step was repeated once (250 × g for 15 min). After the second wash, the cell pellet was resuspended in 7 mL of calcium- and magnesium-free PBS, and an aliquot was removed for cell counting. PBMCs were harvested from the remaining cell suspension by centrifugation at 250g for 15 min at room temperature. The supernatant was removed, and the cell pellet was resuspended in 0.1–0.3 mL of methanol and water at a 70:30 ratio. Cell suspensions were stored at […] prior to analysis.

[3] = target: human DNA polymerase β (Homo sapiens, UniProt P06746); experiment: Human DNA polymerase β inhibition assay; type: biochemical; conditions: highest concentration tested 200 µM
Method: as §1

[4] = tested on: HIV-1 subtypes; conditions: for Fold-Change in IC50 vs CNDO control virus: listed as MK-8527
Method: Compounds were evaluated for antiviral activity against a panel of clinical isolates representing multiple HIV-1 subtypes at Monogram Biosciences (South San Francisco, CA, USA). The isolates were selected based on an absence of resistance-associated mutations in RT and each was constructed as a pooled resistance test vector designed to preserve the quasispecies present in the initial clinical isolate.

[5] = CellTiter-Glo (CTG) cytotoxicity in MT4-GFP cells; conditions: human

C#C[C@]1(COP(=O)(O)OP(=O)(O)OP(=O)(O)O)O[C@@H](n2ccc3c(N)nc(Cl)nc32)C[C@@H]1O [MK-8527-TP]
IC50 [1]: ≥ 95 µM
Arithmetic Mean Concentration in PBMCs ([2]; 2 hr): 11.11 µM
Concentration in PBMCs, individual subjects ([2]; 2 hr): 18.77 µM and 6.47 µM and 11.31 µM
Arithmetic Mean Concentration in PBMCs ([2]; 24 hr): 15.02 µM
Concentration in PBMCs, individual subjects ([2]; 24 hr): 15.33 µM and 20.00 µM and 11.04 µM
Arithmetic Mean Concentration in PBMCs ([2]; 72 hr): 2.78 µM
Concentration in PBMCs, individual subjects ([2]; 72 hr): 5.67 µM and 2.28 µM and 1.67 µM
Arithmetic Mean Concentration in PBMCs ([2]; 168 hr): 0.66 µM
Concentration in PBMCs, individual subjects ([2]; 168 hr): 1.83 µM and 0.38 µM and 0.40 µM
Inhibitory activity [3]: no inhibitory activity

C#C[C@]1(CO)O[C@@H](n2ccc3c(N)nc(Cl)nc32)C[C@@H]1O [Compound 12, (2R,3S,5R)-5-(4-amino-2-chloro-7H-pyrrolo[2,3-d]pyrimidin-7-yl)-2-ethynyl-2-(hydroxymethyl)tetrahydrofuran-3-ol]
Geometric Mean fold-change ([4]; WT Subtype A): 1.0
Geometric Mean fold-change ([4]; WT Subtype A1): 0.9
Fold-Change in IC50 vs CNDO control virus ([4]; WT Subtype A1 clinical isolates): 0.96 and 0.93 and 0.73
Geometric Mean fold-change ([4]; WT Subtype AE): 0.6
Geometric Mean fold-change ([4]; WT Subtype AG): 1.0
Geometric Mean fold-change ([4]; WT Subtype B): 0.9
Geometric Mean fold-change ([4]; WT Subtype BF): 0.8
Geometric Mean fold-change ([4]; WT Subtype C): 1.0
Geometric Mean fold-change ([4]; WT Subtype D): 0.7
Geometric Mean fold-change ([4]; WT Subtype F1): 0.8
Geometric Mean fold-change ([4]; WT Subtype G): 0.752
Geometric Mean fold-change ([4]; WT Subtype H): 0.55
Fold-Change in IC50 vs CNDO control virus ([4]; WT Subtype H clinical isolates): 0.72 and 0.42
CC50 [5]: > 42 µM
